Results published in article PMC6394493 (Cancer Chemotherapy and Pharmacology, 2018).
Read-outs that look alike come from different tables or passages of the source.

Assays:
[1] = Plasma pharmacokinetics (LC–MS/MS, non-compartmental analysis); type: in vivo, Japanese patients; settings: for Cmax / Tmax / AUC(0-t) / AUC(0-inf): human, plasma, oral; for Cmax: read-out: Cmax, Median; for AUC(0-inf): read-out: AUCinf, Median
Experimental: The PK parameters were determined by non-compartmental analysis using Phoenix WinNonlin 6.2® (Pharsight, Mountain View, CA).

advanced solid tumors = experiment: Tumor response per RECIST v1.0; type: in vivo, Japanese patients
Experimental: Tumor lesions were assessed by the investigators according to the RECIST guidelines, v1.0. Patients underwent screening using computed tomography (CT) or magnetic resonance imaging (MRI) scans. Screening was performed within 28 days of the first dose. The post-baseline RECIST assessments were performed every two cycles and then at the end of treatment.

[2] = bid; Western oncology patients; cited from earlier work
[3] = Phase I dose escalation (3 + 3): DLTs, MTD, recommended dose; type: in vivo
Experimental: BEZ235 was administered orally as a single agent on a continuous qd or bid dosing schedule. […] Furthermore, in the previous study, a granule formulation (BEZ235 SDS sachet) was developed because of difficulties in swallowing the large size capsules of the investigational drug. The ingredients of this new formulation, which are dispensed as granules contained within a sachet, are essentially the same as the capsule. […] Decisions regarding dose escalation were based on the safety profile, particularly DLTs, observed in the first cycle of treatment for each patient.
Safety assessments consisted of monitoring and recording of all AEs, including laboratory abnormalities and vital signs. DLTs were defined as an AE or a laboratory abnormality assessed as related to the study drug and occurring within the first 28 days of treatment (Cycle 1), as defined in Supplemental Table S1.

Work on `Cn1c(=O)n(-c2ccc(C(C)(C)C#N)cc2)c2c3cc(-c4cnc5ccccc5c4)ccc3ncc21` [BEZ235] yielded a Cmax ([1]; 1000 mg, Cycle 1 Day 1, 1000 mg qd, n = 6) of 0.472 µg/mL, a Tmax ([1]; 1000 mg, Cycle 1 Day 1, 1000 mg qd, n = 6, read-out: Tmax, Median) of 5 h and an AUC(0-t) ([1]; 1000 mg, Cycle 1 Day 8, 1000 mg qd, n = 3, read-out: AUC0 − 24, Median) of 8.26 µg·h/mL. It also gave an AUC(0-inf) ([1]; 1000 mg, Cycle 1 Day 8, 1000 mg qd, n = 3) of 8.3 µg·h/mL, an AUC(0-t) ([1]; 1000 mg, Cycle 1 Day 8, 1000 mg qd, n = 7, read-out: AUClast, Median) of 9.35 µg·h/mL and a Cmax ([1]; 1000 mg, Cycle 1 Day 8, 1000 mg qd, n = 7) of 0.912 µg/mL. It also gave a Tmax ([1]; 1000 mg, Cycle 1 Day 8, 1000 mg qd, n = 7, read-out: Tmax, Median) of 6 h, an AUC(0-t) ([1]; 1000 mg, Cycle 1 Day 28, 1000 mg qd, n = 2, read-out: AUC0 − 24, Median) of 3.74 µg·h/mL and an AUC(0-inf) ([1]; 1000 mg, Cycle 1 Day 28, 1000 mg qd, n = 2) of 3.77 µg·h/mL. The AUC(0-t) ([1]; 1000 mg, Cycle 1 Day 28, 1000 mg qd, n = 4, read-out: AUClast, Median) was 4.8 µg·h/mL, the Cmax ([1]; 1000 mg, Cycle 1 Day 28, 1000 mg qd, n = 4) was 0.548 µg/mL and the Tmax ([1]; 1000 mg, Cycle 1 Day 28, 1000 mg qd, n = 4, read-out: Tmax, Median) was 4 h. It also gave an AUC(0-inf) ([1]; 1200 mg, Cycle 1 Day 1, 1200 mg qd, n = 1) of 2.29 µg·h/mL, an AUC(0-t) ([1]; 1200 mg, Cycle 1 Day 1, 1200 mg qd, n = 3, read-out: AUC0 − 24, Median) of 6.42 µg·h/mL and an AUC(0-t) ([1]; 1200 mg, Cycle 1 Day 1, 1200 mg qd, n = 5, read-out: AUClast, Median) of 6.42 µg·h/mL. It also gave a Cmax ([1]; 1200 mg, Cycle 1 Day 1, 1200 mg qd, n = 5) of 0.403 µg/mL, a Tmax ([1]; 1200 mg, Cycle 1 Day 1, 1200 mg qd, n = 5, read-out: Tmax, Median) of 6 h and an AUC(0-inf) ([1]; 1200 mg, Cycle 1 Day 8, 1200 mg qd, n = 1) of 14.4 µg·h/mL. For the same compound, the AUC(0-t) ([1]; 1200 mg, Cycle 1 Day 8, 1200 mg qd, n = 4, read-out: AUC0 − 24, Median) was 34.2 µg·h/mL, the AUC(0-t) ([1]; 1200 mg, Cycle 1 Day 8, 1200 mg qd, n = 4, read-out: AUClast, Median) was 33.5 µg·h/mL and the Cmax ([1]; 1200 mg, Cycle 1 Day 8, 1200 mg qd, n = 4) was 1.81 µg/mL. For the same compound, the Tmax ([1]; 1200 mg, Cycle 1 Day 8, 1200 mg qd, n = 4, read-out: Tmax, Median) was 4 h, the AUC(0-t) ([1]; 1200 mg, Cycle 1 Day 28, 1200 mg qd, n = 1, read-out: AUC0 − 24, Median) was 43.4 µg·h/mL and the AUC(0-t) ([1]; 1200 mg, Cycle 1 Day 28, 1200 mg qd, n = 2, read-out: AUClast, Median) was 37.1 µg·h/mL. For the same compound, the Cmax ([1]; 1200 mg, Cycle 1 Day 28, 1200 mg qd, n = 2) was 2.17 µg/mL, the Tmax ([1]; 1200 mg, Cycle 1 Day 28, 1200 mg qd, n = 2, read-out: Tmax, Median) was 5.9 h and the AUC(0-inf) ([1]; 1400 mg, Cycle 1 Day 1, 1400 mg qd, n = 1) was 1.29 µg·h/mL. For the same compound, the AUC(0-t) ([1]; 1400 mg, Cycle 1 Day 1, 1400 mg qd, n = 2, read-out: AUC0 − 24, Median) was 13.7 µg·h/mL, the AUC(0-t) ([1]; 1400 mg, Cycle 1 Day 1, 1400 mg qd, n = 5, read-out: AUClast, Median) was 10.2 µg·h/mL and the Cmax ([1]; 1400 mg, Cycle 1 Day 1, 1400 mg qd, n = 5) was 0.733 µg/mL. The Tmax ([1]; 1400 mg, Cycle 1 Day 1, 1400 mg qd, n = 5, read-out: Tmax, Median) was 8 h, the AUC(0-t) ([1]; 1400 mg, Cycle 1 Day 8, 1400 mg qd, n = 3, read-out: AUC0 − 24, Median) was 36.4 µg·h/mL and the AUC(0-t) ([1]; 1400 mg, Cycle 1 Day 8, 1400 mg qd, n = 5, read-out: AUClast, Median) was 35.9 µg·h/mL. The Cmax ([1]; 1400 mg, Cycle 1 Day 8, 1400 mg qd, n = 5) was 2.48 µg/mL, the Tmax ([1]; 1400 mg, Cycle 1 Day 8, 1400 mg qd, n = 5, read-out: Tmax, Median) was 4 h and the AUC(0-inf) ([1]; 1400 mg, Cycle 1 Day 28, 1400 mg qd, n = 3) was 30.7 µg·h/mL. It also gave an AUC(0-t) ([1]; 1400 mg, Cycle 1 Day 28, 1400 mg qd, n = 4, read-out: AUC0 − 24, Median) of 18.3 µg·h/mL, an AUC(0-t) ([1]; 1400 mg, Cycle 1 Day 28, 1400 mg qd, n = 4, read-out: AUClast, Median) of 18.3 µg·h/mL and a Cmax ([1]; 1400 mg, Cycle 1 Day 28, 1400 mg qd, n = 4) of 1.51 µg/mL. It also gave a Tmax ([1]; 1400 mg, Cycle 1 Day 28, 1400 mg qd, n = 4, read-out: Tmax, Median) of 4 h, a Tmax ([1]; across all dose levels and dosing schedules, Day 1, Day 8, Day 28 of Cycle 1, read-out: Median Tmax) of roughly 4 h and a Tmax ([1]; all dose levels and dosing schedules, read-out: individual Tmax range) of 1 to 24 h. The “PK exposures on Day 8 versus Day 1” value ([1]; qd and bid regimens, Cycle 1) was “at least threefold higher”, the “complete or partial responses (CR or PR)” value (advanced solid tumors; all dose levels, qd and bid, 35 patients, RECIST v1.0) was “No complete or partial responses” and the “Stable disease (SD) as the best response” value (advanced solid tumors; bid, 2 of 8 evaluable patients) was 25.0%. For the same compound, the “duration of continued treatment with SD” value (advanced solid tumors; one patient with carcinoma of unknown primary, qd) was 10 months, the “Stable disease (SD) as the best response” value (advanced solid tumors; qd, 14 of 27 evaluable patients) was 51.9% and the MTD [2] was 300 mg. The “recommended dose (RD)” value ([3]; human, in vivo, 28 days) was 1000 mg, the “tolerability of 400 mg bid” value ([3]; in vivo) was “considered as a tolerable dose” and the “maximum clinically tolerable dose” value ([3]; qd dosing schedule) was 1200 mg. For the same compound, the MTD ([3]; qd dosing, highest dose that causes DLT in no more than one out of six patients in Cycle 1) was “not reached”.
